Data: ChEMBL document CHEMBL5370665, “Insight from Linker Investigations: Discovery of a Novel Phenylbenzothiazole Necroptosis Inhibitor Targeting Receptor-Interacting Protein Kinase 1 (RIPK1) from a Phenoxybenzothiazole Compound with Dual RIPK1/3 Targeting Activity” (J Med Chem, 2023)
Calls of active or inactive are those of the source. The calls are words filed in the database; no cut-off is given here.

Legend:
[1] = Acute toxicity in mouse assessed as body weight loss at 100 to 200 mg/kg,IG and measured upto 14 days; format: organism-based; details: in vivo, po, 336 h, dose 100-200 mg/kg, time < 14 day
L929 = experiment: Anti-necroptic activity against mouse L929 cells assessed as inhibition of […] (mouse TNFalpha, z-VAD-FMK) induced necroptosis at 15 to 500 nM pretreated with compound followed by TZ stimulation for 6 hrs by CellTiter-Glo Luminescent cell viability assay; format: functional, cell-based; details: dose lower […], dose upper 500.0 nM
[2] = Acute toxicity in mouse assessed as pathological damage in lung at 100 to 200 mg/kg,IG and measured after 14 days by H and E staining based microscopy; format: organism-based; details: in vivo, po, 336 h, dose 100-200 mg/kg, time 14 day
Mus musculus [3] = experiment: Anti-inflammatory activity against C57BL/6J mouse model of TNFalpha-induced systemic inflammatory response syndrome (SIRS) assessed as increase in survival rate at 5 mg/kg,po 2 hrs prior to mTNFalpha and z-VAD-FMK stimulation and measured upto 24 hrs; format: functional; details: time 26 hrs
Mus musculus [4] = experiment: Anti-inflammatory activity against C57BL/6J mouse model of TNFalpha-induced systemic inflammatory response syndrome (SIRS) assessed as decrease in IL-1beta level in intestine at 1.25 to 5 mg/kg,po 2 hrs prior to mTNFalpha and z-VAD-FMK stimulation for 8 hrs by ELISA; format: functional, organism-based; details: dose 1.25-5 mg/kg, time 10.0 hrs
HT-29 = experiment: Anti-apoptotic activity against human HT-29 cells assessed as inhibition of TC (human TNFalpha, cycloheximide) induced apoptosis upto 1 uM pretreated with compound followed by TC stimulation for 36 hrs by CellTiter-Glo Luminescent cell viability assay; format: functional, cell-based
Mus musculus [5] = experiment: Anti-inflammatory activity against C57BL/6J mouse model of TNFalpha-induced systemic inflammatory response syndrome (SIRS) assessed as decrease in IL-1beta level in heart at 1.25 to 5 mg/kg,po 2 hrs prior to mTNFalpha and z-VAD-FMK stimulation for 8 hrs by ELISA; format: functional, organism-based; details: dose 1.25-5 mg/kg, time 10.0 hrs
[6] = Acute toxicity in mouse assessed as pathological damage in brain at 100 to 200 mg/kg,IG and measured after 14 days by H and E staining based microscopy; format: organism-based; details: in vivo, po, 336 h, dose 100-200 mg/kg, time 14 day
[7] = molecular target: T1, Receptor-interacting serine/threonine-protein kinase 1 (Homo sapiens) (UniProt Q13546); experiment: Inhibition of RIPK1 phosphorylation in TSZ induced human HT-29 cells at 1 to 1000 nM pretreated with compound followed by TSZ stimulation for 6 hrs by Western blot analysis; format: cell-based; details: dose 1-1000 nM
T1 sequence (whole entry): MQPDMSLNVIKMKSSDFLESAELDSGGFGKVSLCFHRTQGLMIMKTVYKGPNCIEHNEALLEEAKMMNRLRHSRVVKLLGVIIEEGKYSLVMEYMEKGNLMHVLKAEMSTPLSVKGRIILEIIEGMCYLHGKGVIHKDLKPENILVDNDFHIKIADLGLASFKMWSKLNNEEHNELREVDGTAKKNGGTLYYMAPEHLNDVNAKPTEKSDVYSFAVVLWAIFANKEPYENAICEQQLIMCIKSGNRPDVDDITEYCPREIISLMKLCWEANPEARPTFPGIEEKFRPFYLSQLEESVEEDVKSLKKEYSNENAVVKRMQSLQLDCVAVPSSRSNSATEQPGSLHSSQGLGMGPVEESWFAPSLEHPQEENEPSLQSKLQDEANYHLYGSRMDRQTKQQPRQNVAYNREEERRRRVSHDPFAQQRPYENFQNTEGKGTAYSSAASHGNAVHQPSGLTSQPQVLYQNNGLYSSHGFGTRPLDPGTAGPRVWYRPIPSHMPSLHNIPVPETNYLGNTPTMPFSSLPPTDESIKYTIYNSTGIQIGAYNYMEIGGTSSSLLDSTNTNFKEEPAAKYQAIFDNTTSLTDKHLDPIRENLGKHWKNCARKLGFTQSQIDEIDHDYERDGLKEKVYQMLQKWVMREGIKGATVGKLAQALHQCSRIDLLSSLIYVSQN

Mus musculus [8] = experiment: Anti-inflammatory activity against C57BL/6J mouse model of TNFalpha-induced systemic inflammatory response syndrome (SIRS) assessed as decrease in IL-1beta level in brain at 1.25 to 5 mg/kg,po 2 hrs prior to mTNFalpha and z-VAD-FMK stimulation for 8 hrs by ELISA; format: functional, organism-based; details: dose 1.25-5 mg/kg, time 10.0 hrs
[9] = Acute toxicity in mouse assessed as pathological damage in heart at 100 to 200 mg/kg,IG and measured after 14 days by H and E staining based microscopy; format: organism-based; details: in vivo, po, 336 h, dose 100-200 mg/kg, time 14 day
Mus musculus [10] = experiment: Anti-inflammatory activity against C57BL/6J mouse model of TNFalpha-induced systemic inflammatory response syndrome (SIRS) assessed as decrease in IL-6 level in brain at 1.25 to 5 mg/kg,po 2 hrs prior to mTNFalpha and z-VAD-FMK stimulation for 8 hrs by ELISA; format: functional, organism-based; details: dose 1.25-5 mg/kg, time 10.0 hrs

O=C(Cc1cccc(OC(F)(F)F)c1)Nc1cc(-c2ccc3nc(NC(=O)C4CC4)sc3c2)ccc1F
Activity [1]: Non-Toxic | Activity (L929): Active | Activity [2]: Non-Toxic | survival at 5 mg/kg (Mus musculus [3]): 100% | Activity (Mus musculus [4]): Active | Activity (HT-29): inactive | Activity (Mus musculus [5]): inactive | Activity [6]: Non-Toxic | inhibition [7]: Dose-Dependent Effect | Activity (Mus musculus [8]): inactive | Activity [9]: Non-Toxic | Activity (Mus musculus [10]): Dose-Dependent Effect
